Our source for the IC50 values is ChEMBL document CHEMBL1145232, “Synthesis of the naphthalene-derived inhibitors against Cdc25A dual-specificity protein phosphatase and their biological activity” (Bioorg Med Chem Lett, 2005).

Structures are written as SMILES. In brackets after ≈: the same amount, converted by molar mass.

A short description of this test: In vitro inhibitory concentration against Cdc25A protein phosphatase.
As a reminder, the IC50 is the midpoint of a concentration-inhibition curve. A low value points to higher potency. Regarding `CCCCC(O)c1c(C/C=C/CO)cc2c(OC)c(OC)cc(OCc3ccccc3)c2c1OC` (stereo unspecified), the IC50 is over 10 µg/mL.
The molecule `CNC1=CC(=O)c2c(cc(C/C=C/CO)c(C(O)c3ccccc3)c2OC)C1=O` (stereo unspecified) displayed an IC50 of over 10 µg/mL.
`CCCCCC(O)c1c(C/C=C/CO)cc2c(c1OC)C(=O)C=C(NC)C2=O` (stereo unspecified) displayed an IC50 of over 10 µg/mL.
The figure for `CCCCC(O)c1c(C/C=C/CO)cc2c(c1O)C(O)=C/C(=N\C)C2=O` (stereo unspecified) is over 10 µg/mL.
The figure for `COc1cc(OCc2ccccc2)c2c(OC)cc(C[C@@H]3CCOC(C)(C)O3)cc2c1OC` is over 10 µg/mL.
The figure for `CCC(O)c1c(C/C=C/CO)cc2c(c1OC)C(=O)C=C(NC)C2=O` (stereo unspecified) is over 10 µg/mL; for `CCC(O)c1c(C/C=C/CO)cc2c(c1OC)C(=O)C=C(OC)C2=O` (stereo unspecified) it is 1.86 µg/mL (≈ 5.37 µM).
Regarding `COC1=CC(=O)c2c(OC)cc(C[C@@H]3CCOC(C)(C)O3)cc2C1=O`, the IC50 amounted to 0.4 µg/mL (≈ 1.15 µM).
The figure for `CCCCC(O)c1c(C/C=C/CO)cc2c(c1O)C(=O)C=C(OC)C2=O` (stereo unspecified) is 1.51 µg/mL (≈ 4.19 µM); for `CNC1=CC(=O)c2c(OC)cc(C[C@@H]3CCOC(C)(C)O3)cc2C1=O` it is over 10 µg/mL; for `CCCCCC(O)c1c(C/C=C/CO)cc2c(c1OC)C(=O)C=C(OC)C2=O` (stereo unspecified) it is 1.6 µg/mL (≈ 4.12 µM).
Under `COC1=CC(=O)c2c(OC)cc(OC)cc2C1=O` stands 0.4 µg/mL (≈ 1.61 µM); under `CCCCC(O)c1c(C/C=C/CO)cc2c(c1OC)C(=O)C=C(OC)C2=O` (stereo unspecified), 1.77 µg/mL (≈ 4.73 µM).
With `CCCC[C@H]1O[C@@H](CC(=O)O)Cc2cc3c(c(O)c21)C(=O)C=C(NC)C3=O` (racemic), the IC50 entry is listed as “>= 10 ug ml-1”.
The figure for `CNC1=CC(=O)c2c(OC)cc(COC)cc2C1=O` is over 10 µg/mL; for `COC1=CC(=O)c2c(cc(C/C=C/CO)c(C(O)c3ccccc3)c2OC)C1=O` (stereo unspecified) it is 2.74 µg/mL (≈ 6.95 µM).
